{"source": "patent US12606829B2", "about": "“Compositions for herpesvirus transcriptional feedback circuit disruption and uses thereof” (priority 2018, dated 2026)", "key": {"MCMV": {"system": "MCMV", "assay": "MCMV replication in NIH 3T3 mouse fibroblast cells (TCID50)", "format": "cell-based, murine CMV", "conditions": "NIH 3T3, MOI=0.1, 4 days post infection", "description": "(§1) FIG. 14: C-DOTs can be engineered to interfere with a broad range of species-specific herpesviruses including drug-resistant strains. (a) Sequence homology for the crs of human CMV, rhesus CMV (RhCMV), and murine CMV (MCMV). Sequence homology and divergence are represented. […] NIH 3T3 mouse fibroblast cells were nucleofected with either 28 bp C-DOT^MCMY, or C-DOT^Scram, or mock nucleofected 24 hours prior to MCMV infection at MOI=0.1. 4 days post infection, virus titers were assayed by TCID50. […] (Upper) Fluorescent micrographs, 4-day post nucleofection, of Telo-RF cells nucleofected with either a 28 bp C-DOT^RhCMV, or a C-DOT^Scram, or mock nucleofected and then infected with RhCMV (RhCMV 68.1 GFP) at MOI=0.1. (Lower) Virus titers assayed by TCID-50 at 4 days post infection. […] MRC-5 cells were nucleofected with C-DOT^C or C-DOT^Scram then infected 24-hour later with either the parent CMV AD169 (control) or GCV^R or FOS^R strains (CMV GDGrK17, CMV GDGrP53, CMV 759rD100-1, CMV PFArD100). Virus titers were assayed by TCID-50 at 4 days post infection."}, "CMV (TB40E-IE86-YFP)": {"system": "CMV (TB40E-IE86-YFP)", "assay": "Single-round viral titering of CMV in ARPE-19 cells (TCID50)", "format": "cell-based", "excerpt": "(§2) FIG. 7: Feedback circuit disruption interferes with viral replication even at high MOI and limits the evolution of resistance. (a) Flow cytometry of ARPE-19 cells nucleofected with the 28 bp dsDNA that titrates IE86 (C-DOT^C) or scrambled dsDNA sequence (C-DOT^Scram) and infected with a clinically derived CMV (TB40E) encoding an IE86-YFP (MOI=0.1) then analyzed at 2 days post infection (dpi). (b) Flow cytometry of ARPE-19 cells nucleofected with a 29 bp DNA to titrate IE175 (C-DOT^H) or scrambled dsDNA sequence (C-DOT^Scram) and infected with HSV-1 (17syn+strain) encoding an IE175-YFP (MOI=0.1) then analyzed at 2 dpi. (c) Single-round viral titering of CMV in the presence of 100 μM GCV, PBS, or 25 μM C-DOT^C (or C-DOT^Scram) at 4-days post infection under different initial MOIs. (d) Single-round viral titering of HSV-1 in presence of 100 μM ACV or 25 μM C-DOT^H (or C-DOT^Scram) at 4-days post infection under different HSV-1 MOIS. (e) Schematic of the continuous-culture experiment; ARPE-19 cells (+/−C-DOT) were infected with CMV or HSV-1 (0.1 MOI) and at 4-day post infection, supernatant was collected and was used to infect naïve ARPE-19 cells +/−C-DOT until day 60. (f) Continuous culture titers for CMV (TB40E-IE86-YFP) in the presence of C-DOT^C (red) or mock treatment (black). […]"}, "HSV-1 (17syn+ IE175-YFP)": {"system": "HSV-1 (17syn+ IE175-YFP)", "assay": "Single-round viral titering of HSV-1 in ARPE-19 cells (TCID50)", "format": "cell-based", "excerpt": "as §2"}, "[1]": {"system": "CMV (TB40E-IE86-YFP or AD169)", "assay": "C-DOT antiviral effect under high and low cGAS-STING expression (MRC-5, ARPE-19)", "format": "cell-based", "conditions": "MRC-5 (high) and ARPE-19 (low cGAS-STING activity), 4 days post infection", "description": "However, to verify that C-DOT activity is independent of cGAS-STING, C-DOTs were tested under conditions of high and low cGAS-STING expression and observed little difference in C-DOT antiviral effects and no effects for C-DOT^Scram in either setting (FIG. 15b).\nTotal RNA was extracted from cells and corresponding cDNA was quantified by qPCR using sequence specific primers for TLR9 (see Extended Data Table 1 for sequences). […] ARPE-19 (low cGAS-STING activity) and MRC-5 cells (high cGAS-STING activity) were nucleofected with C-DOTE or mock and infected with TB40E-IE86-YFP or AD169, respectively. Virus titers were assayed by TCID-50 at 4 days post infection. (c)C-DOT^C decreases CMV titers below detection by day 60 in the continuous culture setting. CMV titers from the continuous culture experiment followed out to day 60. ARPE-19 cells (+/−25 μM C-DOT) were infected with CMV (TB40E-IE86-YFP; MOI=0.1). (d) CMV and HSV-1 rapidly acquire resistance to approved antivirals (fomivirsen and acyclovir). Viral titers from the continuous culture experiment in the presence or absence of fomivirsen. Mock- or fomivirsen-nucleofected ARPE-19 cells were infected with CMV (TB40E-IE86-YFP; MOI=0.1); at 4 days post infection, supernatants were transferred to infect new naïve ARPE-19 cells (+/−fomivirsen) and transfers repeated every 4 days until day 44. […]"}, "CMV": {"system": "CMV", "assay": "Cell-death pathway analysis in the context of CMV infection", "format": "cell-based", "excerpt": "(§3) FIG. 10 provides a cell-death pathway analysis (pharmacological inhibitors). The mechanism of C-DOT-induced cell death (in the context of the virus infection) was identified using three separate approaches: (i) RNAseq: to identify misregulated expression patterns and the cell-death pathways these group into (ii) Antibody staining: for specific cell-death pathway markers (iii) Pharmacological inhibitors: of cell-death pathways to test which mitigate C-DOT-induced death. […] C-DOT alone caused cell death in CMV and HSV-1."}, "HSV-1": {"system": "HSV-1", "assay": "Cell-death pathway analysis in the context of HSV-1 infection", "format": "cell-based", "excerpt": "as §3"}, "RhCMV 68.1 GFP": {"system": "RhCMV 68.1 GFP", "assay": "RhCMV replication in Telo-RF cells (TCID-50)", "format": "cell-based, rhesus CMV", "conditions": "MOI=0.1, 4 days post infection", "description": "as §1"}}, "note": "Oligonucleotides are written 5' to 3', each unit as a sugar letter and its base; * is a phosphorothioate linkage, no mark a phosphodiester; rarer units and linkages stand in square brackets, end groups in braces. Plain capitals give the bases only. d = 2'-deoxy (DNA)"}
{"compound": "C-DOT^MCMV: 28 bp dsDNA with murine CMV crs; Fw G*ACAGACCA*GCGTCGG*TACCGTACACG*A (SEQ ID NO: 9) (sense dG*dAdCdAdGdAdCdCdA*dGdCdGdTdCdGdG*dTdAdCdCdGdTdAdCdAdCdG*dA; antisense TCGTGTACGGTACCGACGCTGGTCTGTC; antisense: DNA, backbone not given here)", "values": [{"measurement": "effect on MCMV replication", "setting": "MCMV", "value": "interferes with MCMV replication"}]}
{"compound": "Nc1nc(O)c2ncn(COC(CO)CO)c2n1", "note": "[GCV, ganciclovir]", "values": [{"measurement": "reduction in viral replication", "setting": "CMV (TB40E-IE86-YFP); MOI=2, 100 μM GCV or 25 μM C-DOT^C, 4 days post infection", "value": "35-70 ×"}]}
{"compound": "Nc1nc2c(ncn2COCCO)c(=O)[nH]1", "note": "[ACV, acyclovir]", "values": [{"measurement": "reduction in viral replication", "setting": "HSV-1 (17syn+ IE175-YFP); HSV-1, MOI=2, 100 μM ACV or 25 μM C-DOT^H, 4 days post infection", "value": "35-70 ×"}]}
{"compound": "C-DOT^Scram: scrambled dsDNA sequence, phosphorothioated, negative control; Fw A*TACCGCGTAA*CCAGAGGT*ATATAGGT*C (SEQ ID NO: 40) (sense ATACCGCGTAACCAGAGGTATATAGGTC; antisense GACCTATATACCTCTGGTTACGCGGTAT; phosphorothioate; (1)..(2) A Phosphorothioate bond is present between the nucleotides at positions 1 and 2; (11)..(12) A Phosphorothioate bond is present between the nucleotides at positions 11 and 12; (19)..(20) A Phosphorothioate bond is present between the nucleotides at positions 19 and 20; (27)..(28) A Phosphorothioate bond is present between the nucleotides at positions 27 and 28; (1)..(2) A Phosphorothioate bond is present between the nucleotides at positions 1 and 2.; (9)..(10) A Phosphorothioate bond is present between the nucleotides at positions 9 and 10.; (17)..(18) A …)", "values": [{"measurement": "antiviral effects", "setting": "CMV (TB40E-IE86-YFP)", "value": "did not exhibit antiviral effects"}, {"measurement": "antiviral effects", "setting": "HSV-1 (17syn+ IE175-YFP); HSV-1", "value": "did not exhibit antiviral effects"}, {"measurement": "antiviral effects under high and low cGAS-STING expression", "setting": "[1]", "value": "no effects"}, {"measurement": "cell death", "setting": "CMV", "value": "minimal cell death"}, {"measurement": "cell death", "setting": "HSV-1", "value": "minimal cell death"}]}
{"compound": "C-DOT^RhCMV: 28 bp dsDNA with rhesus CMV crs; Fw G*ACAGATCGT*TTAGGGAAC*CGTACACG*A (SEQ ID NO: 8) (sense dG*dAdCdAdGdAdTdCdGdT*dTdTdAdGdGdGdAdAdC*dCdGdTdAdCdAdCdG*dA; antisense TCGTGTACGGTTCCCTAAACGATCTGTC; antisense: DNA, backbone not given here)", "values": [{"measurement": "effect on RhCMV replication", "setting": "RhCMV 68.1 GFP", "value": "downregulates RhCMV replication"}]}
